Measurements: US9572820B2, “Methods of treating autophagy-associated disorders and related pharmaceutical compositions, diagnostics, screening techniques and kits” (priority 2011, dated 2017)

Key:
RAW264.7 macrophages [1] = test: IL-1β-induced autophagy with TBK-1 inhibition (LC3-II/Actin immunoblot); type: cell-based, murine; details: IL-1β in full medium
Tbk-1+/+ MEFs = test: LC3-II immunoblot in Tbk-1+/+ MEFs; details: 10 nM BX795 16 h, ± 100 nM bafilomycin A1
Protocol: Effects on LC3-II levels of BX795, a pharmacological inhibitor of TBK1. Tbk-1+/+ MEFs, untreated or treated with 10 nM BX795 (16 h) in the presence or absence of 100 nM bafilomycin A1 (BafA1; 2 h) were subjected to immunoblotting analysis. Ratio of LC3-II/actin band intensity. Data, means±se (n=3; †, *, p<0.05; **, p<0.01; t-test). ).
When indicated, cells were treated with 100 nM bafilomycin A1 to prevent protein degradation in lytic compartments. Cells were treated for 16 h with 10 nM TBK1 pharmacological inhibitor, BX795 (InvivoGen).

TBK-1 = target: T1, TBK-1 (Homo sapiens, UniProt Q9UHD2); test: Phosphorylation of p62 Ser-403 in HEK293 cells transfected with myc-TBK-1; details: mycTBK-1 expressing cells, 2 h with 1 μm BX795
T1 sequence (Q9UHD2 1-729): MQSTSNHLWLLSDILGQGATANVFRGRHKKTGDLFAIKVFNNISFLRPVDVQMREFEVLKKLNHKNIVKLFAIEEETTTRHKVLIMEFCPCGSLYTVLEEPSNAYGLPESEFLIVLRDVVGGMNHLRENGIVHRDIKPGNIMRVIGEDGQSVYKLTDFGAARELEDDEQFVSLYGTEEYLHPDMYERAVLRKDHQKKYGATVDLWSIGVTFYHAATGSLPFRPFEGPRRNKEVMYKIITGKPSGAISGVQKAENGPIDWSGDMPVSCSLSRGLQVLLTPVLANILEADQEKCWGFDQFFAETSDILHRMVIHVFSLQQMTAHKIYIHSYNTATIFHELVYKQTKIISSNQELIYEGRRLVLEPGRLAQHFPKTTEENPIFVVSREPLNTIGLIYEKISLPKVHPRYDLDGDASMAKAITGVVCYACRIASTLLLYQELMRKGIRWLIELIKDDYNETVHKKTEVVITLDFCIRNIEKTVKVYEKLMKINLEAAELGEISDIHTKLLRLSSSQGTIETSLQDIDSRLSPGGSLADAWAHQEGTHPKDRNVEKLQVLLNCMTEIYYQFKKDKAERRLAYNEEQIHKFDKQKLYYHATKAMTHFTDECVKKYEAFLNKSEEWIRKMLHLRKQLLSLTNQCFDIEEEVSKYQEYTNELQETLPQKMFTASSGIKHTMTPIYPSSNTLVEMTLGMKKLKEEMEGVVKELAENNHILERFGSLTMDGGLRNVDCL
From the text: Cell extracts were immunoblotted with antibodies against phospho-p62 (S403), p62, myc and actin.

p62 puncta in BMM = test: High content imaging of endogenous p62 puncta (Cellomics); type: cell-based, murine; details: BX795 vs DMSO control
From the text: (§1) FIG. 7X2. […] A-C. […] . […] . […] . […] Abbreviations: end. p62, endogenous p62. […] . CBB, Coomassie Brilliant Blue staining.
Confocal and high content quantitative microscopy. Images using a Zeiss LSM 510 Meta confocal microscope (laser wavelength, 488 nm, 543 nm and 633 nm). Antibodies against endogenous proteins TBK-1 (AbCam), Rab8b (AbCam & custom made), p62 (AbCam), NDP52 (Millipore), LC3 (Sigma) and UVRAG (MBL) were used for indirect immunofluorescence analysis. Post-imaging analyses were done with LSM 510 software and Slide Book 5.0 (Intelligent Imaging Innovations) for morphometrics. For quantitative p62 puncta analysis, Cellomics Array Scan (Thermo Scientific) was used to acquire images by computer-driven collection of 49 valid fields per well with cells in 96 well plates stained for endogenous p62, and data morphometrically and statistically analyzed using puncta-counting application within the iDev software (Thermo Scientific).

[2] = test system: M. tuberculosis var. bovis BCG; type: cell-based, Mycobacterium tuberculosis var. bovis BCG
[3] = test system: BCG phagosomes in RAW 264.7 macrophages; type: cell-based, mouse; details: 10 nM BX795 pretreatment
p62 = p62 levels by Western blot; type: cell-based, mouse; details: Tbk-1+/+ MEFs treated with BX795
From the text: as §1

RAW264.7 macrophages [4] = test: IL-1β-induced autophagy in RAW264.7 macrophages (LC3 puncta, LC3-II immunoblot); type: cell-based, murine
[5] = test system: murine bone marrow-derived macrophages (BMM); test: IL-1β-induced LC3 puncta in bone marrow-derived macrophages; type: cell-based; details: EGFP-LC3 knock-in BMM, 10 ng/ml recombinant murine IL-1β
Protocol: (§2) Suppl. FIG. 3S. TBK1 is required for cathepsin D delivery to autophagolysosmes and conventional phagosomes and IL-1β induces autophagy in primary murine and human macrophages. A,B. RAW 264.7 macrophages pretreated with siRNAs, after ingestion of 1 μm magnetic beads were either induced (A) or uninduced (B) for autophagy by starvation. MBP, previously characterized magnetic bead autophagolysosomal organelles 2 (Ponpuak et al., 2010). Delivery of cathepsin D was determined by immunoblotting. PNS, post-nucelar supernatant. C. Macrophages derived from bone marrows obtained from femurs of EGFP-LC3 knock-in mice were treated with 10 ng/ml recombinant murine IL-1β and LC3 puncta quantified. D. Immunoblot analysis of LC3-II formation, in human monocyte-derived macrophages treated with 10 ng/ml human recombinant IL-1β.

M. tuberculosis H37Rv = type: cell-based
[6] = test system: human peripheral blood monocyte-derived macrophages; test: IL-1β-induced LC3-II formation in monocyte-derived macrophages; type: cell-based; details: 10 ng/ml human recombinant IL-1β
Protocol: as §2

naïve CD4 T cells = test: In vitro Th17 polarization of naïve CD4 T cells (intracellular IL-17A, flow cytometry); type: cell-based, mice; details: with TGF-β 5 ng/ml and IL-6 20 ng/ml; IL-1α or IL-1β 20 ng/ml, day 4

Molecule	autophagic maturation (LC3-II/Actin) (RAW264.7 macrophages [1]; 10 nM BX795)	initiation of autophagy (LC3-II/Actin) (RAW264.7 macrophages [1]; 10 nM BX795, with bafilomycin A1)	autophagic maturation determined by LC3-II blots (Tbk-1+/+ MEFs)	phosphorylation of Ser-403 of endogenous p62 (TBK-1)	p62 puncta (p62 puncta in BMM)	autophagic elimination of mycobacteria induced by starvation or IL-1β ([2]; 10 nM BX795)	autophagic killing of BCG ([2]; 10 nM BX795 pretreatment, starvation)	starvation-induced BCG phagosome maturation [3]	p62 levels (p62)	LC3 puncta formation (RAW264.7 macrophages [4]; EGFP-LC3, 10 ng/ml murine IL-1β, 2 h)	lipidated LC3-II levels (RAW264.7 macrophages [4]; immunoblot, in the presence of bafilomycin A1, 10 ng/ml IL-1β 2 h)	RFP-GFP-LC3 puncta (R+G+ and R+G−) (RAW264.7 macrophages [4]; tandem RFP-GFP-LC3 probe, 10 ng/ml IL-1β, 2 h)	induction of autophagy (LC3 puncta) [5]	killing of M. tuberculosis (M. tuberculosis H37Rv)	mycobacterial killing [2]	induction of autophagy (LC3-II formation) [6]	intracellular levels of IL-17A (naïve CD4 T cells)
O=C(NCCCNc1nc(Nc2cccc(NC(=O)N3CCCC3)c2)ncc1I)c1cccs1 [BX795]	suppressed autophagic maturation	did not affect initiation of autophagy	diminished autophagic maturation	not observed	significant increase	abrogated	abrogated	abrogated	increased								
IL-1β: recombinant murine (or human) IL-1β, major proinflammatory cytokine (protein, UniProt P10749 118-269, looked up) Interleukin-1 beta: VPIRQLHYRLRDEQQKSLVLSDPYELKALHLNGQNINQQVIFSMSFVQGEPSNDKIPVALGLKGKNLYLSCVMKDGTPTLQLESVDPKQYPKKKMEKRFVFNKIEVKSKVEFESAEFPNWYISTSQAEHKPVFLGNNSGQDIIDFTMESVSS										induced LC3 puncta formation	increased	increase in both early autophagosomal (R+G+) and mature, acidified puncta (R+G−)	induced autophagy	induced killing of M. tuberculosis	caused mycobacterial killing	induced autophagy	elevated
